The values that follow come from US20260001871A1, “TRIAZOLE DERIVATIVES AS MODULATORS OF MAS-RELATED G-PROTEIN RECEPTOR D” (ESCIENT PHARMACEUTICALS, INC., priority 2022, published 2026).

In this test the target is human MRGPRD (Homo sapiens, UniProt Q8TDS7). In words: MRGPRD antagonist activity, IP-One HTRF assay in CHO cells stably expressing human MRGPRD (versus 100 μM β-Alanine agonist). It counts as cell-based. In a few lines: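 CHO cells stably expressing human MRGPRD, plated overnight at 37 °C, were treated with antagonist plus agonist in Tris-HCl/NaCl/LiCl buffer pH 8, incubated 1 h at 37 °C then 1 h at room temperature. IP-1 accumulation read by HTRF; IC50 and percent antagonism of maximum efficacy averaged, SEM reported.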
Chain of human MRGPRD (Q8TDS7 whole entry): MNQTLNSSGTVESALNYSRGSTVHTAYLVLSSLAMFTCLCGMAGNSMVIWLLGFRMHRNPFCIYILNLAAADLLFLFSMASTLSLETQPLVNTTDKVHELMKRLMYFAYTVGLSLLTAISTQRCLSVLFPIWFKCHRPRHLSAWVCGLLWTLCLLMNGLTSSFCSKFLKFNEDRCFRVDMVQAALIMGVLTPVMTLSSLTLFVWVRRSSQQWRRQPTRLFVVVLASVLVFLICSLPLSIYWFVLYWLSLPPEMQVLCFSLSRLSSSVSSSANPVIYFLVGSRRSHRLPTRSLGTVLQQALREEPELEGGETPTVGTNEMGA

`N#Cc1ccc(-c2ccc(-n3nnc(C(=O)NC4(c5cccnc5)CC4)c3C3CC3)cc2)cc1` [Compound 18-3, 1-(4′-cyano-[1,1′-biphenyl]-4-yl)-5-cyclopropyl-N-(1-(pyridin-3-yl)cyclopropyl)-1H-1,2,3-triazole-4-carboxamide] displayed an IC50 of 500 to 1000 nM.

`Cc1nn(C)c(C)c1-c1ccc(-n2nnc(C(=O)NCc3ccc(C(C)C)nc3)c2C2CC2)cc1` [Compound 9-9] gave an IC50 of 100 to 500 nM.

Turning to `CCn1nc(C)c(-c2ccc(-n3nnc(C(=O)NCc4cccnc4C)c3C3CC3)cc2)c1C` [Compound 9-5], the IC50 is below 100 nM.

`CCc1ccc(C2(NC(=O)c3nnn(-c4ccc(-c5ccc(C#N)cc5C)cc4)c3C3CC3)CC2)cn1` [Compound 9-17] displayed an IC50 of 100 to 500 nM.

In turn, `Cc1nn(C)c(C)c1-c1ccc(-n2nnc(C(=O)Nc3ccncc3)c2C2CC2)cc1C(F)(F)F` [Compound 7-331] returned an IC50 above 3000 nM.

Molecule `COc1cc(-c2ccc(C#N)cc2)ccc1-n1nnc(C(=O)Nc2ccnc(C)c2)c1C1CC1` [Compound 7-228] returned an IC50 of 100 to 500 nM.

`CC(C)(C)n1cc(-c2cccc(-n3nnc(C(=O)Nc4ccncc4)c3C3CC3)c2)cn1` [Compound 7-288]: the IC50 fell in the range of 1000 to 3000 nM.

Molecule `CCc1ccc(C2(NC(=O)c3nnn(-c4ccc(-c5c(C)nn(-c6ccccc6)c5C)cc4)c3C3CC3)CC2)cn1` [Compound 9-20] displayed an IC50 of 100 to 500 nM.

`Cn1ncc(NC(=O)c2nnn(-c3ccc(-c4ccccc4)cc3)c2C2CC2)c1Cl` [Compound 14-10] yielded an IC50 above 3000 nM.

The molecule `COc1ccc(-c2ccc(-n3nnc(C(=O)Nc4ccncc4)c3C3CC3)cc2)cc1C` [Compound 7-84] registered an IC50 of 100 to 500 nM.

Consider `Cn1ncc2c1CN(C(=O)c1nnn(-c3ccc(-c4ccccc4)cc3)c1C1CC1)C2` [Compound 14-17], for which the IC50 lay in the range of 100 to 500 nM.

`CC(NC(=O)c1nnn(-c2ccc(-c3ccccc3)cc2)c1C1CC1)c1ccc(S(C)(=O)=O)cc1` (stereo not shown) [Compound 14-47] had a half-maximal inhibitory concentration (IC50) of 1000 to 3000 nM.

`CCCn1cc(-c2ccc(-n3nnc(C(=O)Nc4ccncc4)c3C3CC3)cc2)cn1` [Compound 7-86] came in with a half-inhibitory concentration (IC50) of 100 to 500 nM.

On to `COc1cc(C#N)ccc1-c1ccc(-n2nnc(C(=O)NCc3ccc(C)nc3)c2C2CC2)cc1` [Compound 7-48], for which the IC50 lay within 100 to 500 nM.

`CCc1cc(C)ccc1-n1nnc(C(=O)Nc2ccncc2)c1C1CC1` [Compound 5-6] registered an IC50 of 1000 to 3000 nM.

In turn, `CC(C)Cn1nc(C(F)(F)F)cc1-c1ccc(-n2nnc(C(=O)Nc3ccncc3)c2C2CC2)cc1` [Compound 7-212] displayed an IC50 of 1000 to 3000 nM.

`CC(=O)c1cccc(-c2ccc(-n3nnc(C(=O)Nc4ccncc4)c3C3CC3)cc2)c1F` [Compound 7-85]: the IC50 was in the range of 100 to 500 nM.

`Cc1cc(NC(=O)c2nnn(-c3ccc(-c4c(C)nn(C)c4F)cc3)c2C2CC2)ccn1` [Compound 7-13] displayed a 50% inhibitory concentration (IC50) below 100 nM.

`O=C(Nc1ccncc1)c1nnn(-c2cccc3ccccc23)c1C1CC1` [Compound 6-2, 5-cyclopropyl-1-(naphthalen-1-yl)-N-(pyridin-4-yl)-1H-1,2,3-triazole-4-carboxamide] returned an IC50 of 100 to 500 nM.

As to `CN(C)C(=O)c1ccccc1-c1ccc(-n2nnc(C(=O)Nc3ccncc3)c2C2CC2)cc1` [Compound 7-2], the IC50 was above 3000 nM.

As to `CCc1cc(NC(=O)c2nnn(-c3ccc(-c4c(C)nn5cccnc45)cc3)c2C2CC2)ccn1` [Compound 10-4], the IC50 lay within 100 to 500 nM.

As to `CN(C)Cc1ccc(-c2ccc(-n3nnc(C(=O)Nc4ccncc4)c3C3CC3)cc2)cc1` [Compound 7-210], the IC50 is 1000 to 3000 nM.

As to `Cc1ccc(-n2nnc(C(=O)Nc3ccnc(F)c3)c2C2CC2)cc1` [Compound 1-7], the IC50 fell in the range of 500 to 1000 nM.

`Cn1ccc(-c2ccc(-n3nnc(C(=O)Nc4ccncc4)c3C3CC3)cc2)c1` [Compound 7-55] yielded an IC50 of 100 to 500 nM.

With `Cc1csc(-c2ccc(-n3nnc(C(=O)Nc4ccncc4)c3C3CC3)cc2)n1` [Compound 7-140], the half-inhibitory concentration (IC50) lay in the range of 500 to 1000 nM.

Turning to `CCn1cc(CNC(=O)c2nnn(-c3ccc(-c4ccc(C#N)cc4)cc3)c2C(C)C)cn1` [Compound 17-17], the IC50 lay within 100 to 500 nM.

In turn, `Cc1ccc(CNC(=O)c2nnn(-c3cccc(-c4cnn(C5CC5)c4)c3)c2C2CC2)cn1` [Compound 7-333] yielded an IC50 above 3000 nM.

With `Cc1nn(-c2ccccc2)cc1-c1cccc(-n2nnc(C(=O)Nc3ccncc3)c2C2CC2)c1` [Compound 7-281], the IC50 lay within 500 to 1000 nM.

In turn, `CC(=O)c1ccc(-c2ccc(-n3nnc(C(=O)Nc4ccncc4)c3C3CC3)cc2C)cc1` [Compound 7-238] gave a half-maximal inhibitory concentration (IC50) of 100 to 500 nM.

As to `Cc1nn(C(=O)c2nnn(-c3ccc(-c4ccccc4)cc3)c2C2CC2)c2cccc(N)c12` [Compound 14-4], the IC50 is above 3000 nM.

For the molecule `O=C(Nc1ccncc1)c1nnn(-c2ccc(-c3cccc(CO)c3)cc2)c1C1CC1` [Compound 7-171], the IC50 lay within 1000 to 3000 nM.

Molecule `Cc1ccc(-c2ccc(-n3nnc(C(=O)Nc4ccncc4)c3C3CC3)cc2)s1` [Compound 7-182] registered an IC50 of 1000 to 3000 nM.

`O=C(Nc1ccncc1)c1nnn(-c2cccc(-c3cccc(C(F)(F)F)c3)c2)c1C1CC1` [Compound 7-294] came in with an IC50 of 1000 to 3000 nM.

Take `Cc1cc(NC(=O)c2nnn(-c3ccc(-c4ccc(CC#N)cc4)cc3)c2C2CC2)ccn1` [Compound 15-1]: the IC50 was below 100 nM.

As to `CC(=O)c1ccc(-c2ccc(-n3nnc(C(=O)Nc4ccncc4)c3C3CC3)cc2)s1` [Compound 7-147], the IC50 was 500 to 1000 nM.

For the molecule `COc1ccc(-n2nnc(C(=O)Nc3ccncc3)c2C2CC2)cc1` [Compound 2-4, 5-cyclopropyl-1-(4-methoxyphenyl)-N-(pyridin-4-yl)-1H-1,2,3-triazole-4-carboxamide], the IC50 was in the range of 500 to 1000 nM.

Molecule `N#Cc1ccc(-c2ccc(-n3nnc(C(=O)Nc4ccncc4)c3C3CC3)cc2)cc1` [Compound 7-39] displayed an IC50 of 100 to 500 nM.

The molecule `Cc1nn(-c2ccccc2)c(C)c1-c1ccc(-n2nnc(C(=O)N3Cc4cnn(C)c4C3)c2C2CC2)cc1` [Compound 9-29] yielded an IC50 of 500 to 1000 nM.

In turn, `CC(=O)c1cccc(-c2cccc(-n3nnc(C(=O)NC4(c5cccnc5)CC4)c3C3CC3)c2)c1` [Compound 18-20] showed an IC50 of 100 to 500 nM.

For `CC(NC(=O)c1nnn(-c2ccc(-c3ccc(C#N)cc3)cc2)c1C1CC1)c1ccn(C)n1` (stereo not shown) [Compound 15-10], the IC50 is above 3000 nM.

On to `Cn1cc(NC(=O)c2nnn(-c3ccc(-c4ccccc4)cc3)c2C2CC2)cn1` [Compound 14-72], for which the IC50 was above 3000 nM.

Regarding `CC(C)(C)n1cc(-c2ccc(-n3nnc(C(=O)Nc4ccncc4)c3C3CC3)cc2)cn1` [Compound 7-142], the IC50 was 500 to 1000 nM.

In turn, `Cc1cnn(C2CCCCO2)c1-c1ccc(-n2nnc(C(=O)Nc3ccncc3)c2C2CC2)cc1` (stereo not shown) [Compound 7-193] had an IC50 of 1000 to 3000 nM.

With `Cc1cc(NC(=O)c2nnn(-c3ccc(-c4ccc(C#N)cc4)cc3F)c2C2CC2)ccn1` [Compound 22-1, 1-(4′-cyano-3-fluoro-[1,1′-biphenyl]-4-yl)-5-cyclopropyl-N-(2-methylpyridin-4-yl)-1H-1,2,3-triazole-4-carboxamide], the IC50 was 100 to 500 nM.

Molecule `N#CCc1ccc(-c2cccc(-n3nnc(C(=O)NC4(c5cccnc5)CC4)c3C3CC3)c2)c(F)c1` [Compound 7-330] gave an IC50 above 3000 nM.

`O=C(Nc1ccncc1)c1nnn(-c2cccc(-c3cccc(-c4ccccc4)c3)c2)c1C1CC1` [Compound 7-328]: the concentration for half-maximal inhibition (IC50) is above 3000 nM.

`Cc1cc(-c2ccc(C#N)cc2)ccc1-n1nnc(C(=O)Nc2ccncc2)c1C1CC1` [Compound 7-230] registered an IC50 of 100 to 500 nM.

As to `Cc1cccc(-c2ccc(-n3nnc(C(=O)Nc4ccncc4)c3C3CC3)cc2)c1` [Compound 7-113], the half-maximal inhibitory concentration (IC50) lay in the range of 500 to 1000 nM.

Turning to `CCc1ccc(C2(NC(=O)c3nnn(-c4ccc(-c5ccc(C#N)c(F)c5)cc4)c3C3CC3)CC2)cn1` [Compound 9-13], the IC50 was 100 to 500 nM.

Consider `Cc1ccc(NC(=O)c2nnn(-c3ccc(-c4ccc(C#N)cc4C)cc3)c2C2CC2)cn1` [Compound 9-30], for which the IC50 lay in the range of 1000 to 3000 nM.

In the case of `Cn1cc(-c2cccc(-n3nnc(C(=O)Nc4ccncc4)c3C3CC3)c2)cn1` [Compound 7-326], the IC50 fell in the range of 1000 to 3000 nM.

As for `O=C(NC1(c2cccnc2)CC1)c1nnn(-c2ccc(-c3ccccc3)cc2)c1C1CC1` [Compound 14-46], the IC50 fell in the range of 1000 to 3000 nM.

Take `CC(C)Oc1ccc(-c2ccc(-n3nnc(C(=O)Nc4ccncc4)c3C3CC3)cc2)cc1` [Compound 7-131]: the IC50 was 500 to 1000 nM.

In turn, `COc1ccc(-c2ccc(-n3nnc(C(=O)Nc4ccncc4)c3C3CC3)cc2)c(F)c1` [Compound 7-35] yielded an IC50 of 100 to 500 nM.

Turning to `COc1ccc(-c2ccc(-n3nnc(C(=O)Nc4ccncc4)c3C3CC3)cc2)cc1F` [Compound 7-185], the IC50 fell in the range of 1000 to 3000 nM.

Regarding `CCn1cc(CNC(=O)c2nnn(C3CC=C(c4ccc(C#N)cc4)CC3)c2C2CC2)cn1` (stereo not shown) [Compound 12-8], the IC50 lay in the range of 1000 to 3000 nM.

On to `O=C(NC1(c2ccccc2)CCC1)c1nnn(-c2ccc(-c3ccccc3)cc2)c1C1CC1` [Compound 14-6], for which the IC50 was above 3000 nM.

Take `O=C(Nc1cccc2nccn12)c1nnn(-c2ccc(-c3ccccc3)cc2)c1C1CC1` [Compound 14-65]: the IC50 lay in the range of 1000 to 3000 nM.

For the molecule `CC(=O)c1cc(NC(=O)c2nnn(-c3ccc(-c4ccccc4)cc3)c2C2CC2)ccn1` [Compound 14-88], the IC50 is 1000 to 3000 nM.

`CC(C)(C)c1cccc(-c2ccc(-n3nnc(C(=O)Nc4ccncc4)c3C3CC3)cc2)c1` [Compound 7-201]: the IC50 lay within 1000 to 3000 nM.

The molecule `CCn1cc(CNC(=O)c2nnn(-c3ccc(-c4ccc(C#N)cc4)cn3)c2C(C)C)cn1` [Compound 17-20] returned an IC50 of 100 to 500 nM.

Regarding `Cc1nn(C)c(C)c1-c1ccc(-n2nnc(C(=O)Nc3cccnc3)c2C(C)C)cc1` [Compound 17-29], the IC50 was in the range of 500 to 1000 nM.

`O=C(Nc1ccncc1)c1nnn(-c2ccc(-c3ccnn3-c3ccccc3)cc2)c1C1CC1` [Compound 7-156]: the 50% inhibitory concentration (IC50) is 500 to 1000 nM.

In the case of `O=C(Nc1ccncc1)c1nnn(-c2ccc(-c3cnn(CC(F)(F)F)c3)cc2)c1C1CC1` [Compound 7-123], the IC50 is 500 to 1000 nM.
